From PubChem BioAssay (NCI)
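Growth conditions: 96-well plates. Treatment: test compound, 48 hours, 5 concentrations. Analysis: linear interpolation between bracketing concentrations; unreached endpoints set to highest concentration. GI50: concentration for 50% inhibition of growth. TGI: concentration producing complete growth inhibition.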

Legend:
Assay in all cases: inhibition of tumour cell growth, NCI panel, 48 h
[1] = tested on: COLO 205 colon
[2] = tested on: DU-145 prostate
[3] = tested on: HT29 colon
[4] = tested on: LOX IMVI melanoma
[5] = tested on: MCF7 breast
[6] = tested on: MDA-MB-231 breast
[7] = tested on: NCI-H522 lung
[8] = tested on: SK-MEL-5 melanoma
[9] = tested on: SN12C renal
[10] = tested on: SR leukemia

`CC[C@@]1(O)C(=O)NCc2c1cc1n(c2=O)Cc2cc3c(N)cccc3nc2-1` was tested, and the GI50 [1] was 8.35 µM, the TGI [1] was greater than 48.1 µM and the GI50 [2] was 1.04 µM. For the same compound, the TGI [2] was 17.9 µM, the GI50 [3] was 15.1 µM and the TGI [3] was greater than 100 µM. It also gave a GI50 [4] of 0.468 µM, a TGI [4] of 9.5 µM and a GI50 [5] of 0.787 µM. The TGI [5] was greater than 100 µM, the GI50 [6] was 16.4 µM and the TGI [6] was greater than 60.3 µM. For the same compound, the GI50 [7] was 0.176 µM, the TGI [7] was 9.71 µM and the GI50 [8] was 1.23 µM. The TGI [8] was 17.3 µM, the GI50 [9] was 0.529 µM and the TGI [9] was 35.2 µM. The GI50 [10] was 0.672 µM and the TGI [10] was 5.35 µM.
In the case of `COc1ccccc1NC(=O)n1nc(N)c2ccccc21`, the GI50 [1] is reported as greater than 100 µM, the TGI [1] is reported as greater than 100 µM and the GI50 [2] is reported as greater than 100 µM. It also gave a TGI [2] greater than 100 µM, a GI50 [3] greater than 73.4 µM and a TGI [3] greater than 100 µM. For the same compound, the GI50 [4] was 82 µM, the TGI [4] was greater than 100 µM and the GI50 [5] was 0.0842 µM. The TGI [5] was 4.32 µM, the GI50 [6] was 66 µM and the TGI [6] was greater than 100 µM. It also gave a GI50 [7] of 53.9 µM, a TGI [7] greater than 100 µM and a GI50 [8] greater than 87.9 µM. The TGI [8] was greater than 100 µM, the GI50 [9] was greater than 100 µM and the TGI [9] was greater than 100 µM. For the same compound, the GI50 [10] was 92.4 µM and the TGI [10] was greater than 100 µM.
Work on `CC1=C[C@H]2c3c(c(O)c(O)c4oc5ccccc5c(=O)c34)[C@H](c3cc(O)c(O)c4oc5ccccc5c(=O)c34)[C@H]2C(C)(C)C1` yielded a GI50 [1] of 2.8 µM, a TGI [1] of 9.73 µM and a GI50 [2] of 1.01 µM. It also gave a TGI [2] of 14.4 µM, a GI50 [3] of 0.86 µM and a TGI [3] of 13.8 µM. The GI50 [4] was 0.451 µM, the TGI [4] was 1.76 µM and the GI50 [5] was 0.772 µM. It also gave a TGI [5] of 11.1 µM, a GI50 [6] of 2.9 µM and a TGI [6] of 19.1 µM. It also gave a GI50 [7] of 1.77 µM, a TGI [7] of 5.57 µM and a GI50 [8] of 1.17 µM. For the same compound, the TGI [8] was 2.51 µM, the GI50 [9] was 1.36 µM and the TGI [9] was 6.71 µM. It also gave a GI50 [10] of 0.384 µM and a TGI [10] of 34.4 µM.
With `O=[N+]([O-])c1ccc(N/N=C/c2c(O)ccc3ccccc23)nc1` the GI50 [1] was 30.5 µM, the TGI [1] was greater than 100 µM and the GI50 [2] was 6.77 µM. It also gave a TGI [2] greater than 100 µM, a GI50 [3] greater than 100 µM and a TGI [3] greater than 100 µM. It also gave a GI50 [4] of 1.26 µM, a TGI [4] greater than 100 µM and a GI50 [5] of 1.91 µM. For the same compound, the TGI [5] was greater than 100 µM, the GI50 [6] was 15.9 µM and the TGI [6] was greater than 100 µM. For the same compound, the GI50 [7] was 3.74 µM, the TGI [7] was greater than 100 µM and the GI50 [8] was 20.1 µM. It also gave a TGI [8] greater than 100 µM, a GI50 [9] of 48.5 µM and a TGI [9] greater than 100 µM. It also gave a GI50 [10] of 0.665 µM and a TGI [10] greater than 100 µM.
`CCOc1cc2c(NCCCN(CCO)CCO)ncnc2c(OCC)c1OCC` showed a TGI [1] greater than 100 µM, a TGI [2] greater than 100 µM and a TGI [3] greater than 100 µM. The TGI [4] was greater than 100 µM, the TGI [5] was greater than 100 µM and the TGI [6] was greater than 100 µM. For the same compound, the TGI [7] was greater than 100 µM, the TGI [8] was greater than 100 µM and the TGI [9] was greater than 100 µM. The TGI [10] was greater than 100 µM.
`N=C(N=C(N)N)N1CCN(c2ccncc2)CC1` showed a GI50 [1] greater than 1000 µM, a TGI [1] greater than 1000 µM and a GI50 [2] greater than 1000 µM. The TGI [2] was greater than 1000 µM, the GI50 [3] was greater than 1000 µM and the TGI [3] was greater than 1000 µM. It also gave a GI50 [4] greater than 1000 µM, a TGI [4] greater than 1000 µM and a GI50 [5] greater than 1000 µM. It also gave a TGI [5] greater than 1000 µM, a GI50 [6] greater than 1000 µM and a TGI [6] greater than 1000 µM. The GI50 [7] was greater than 1000 µM, the TGI [7] was greater than 1000 µM and the GI50 [8] was greater than 1000 µM. For the same compound, the TGI [8] was greater than 1000 µM, the GI50 [9] was greater than 1000 µM and the TGI [9] was greater than 1000 µM. The GI50 [10] was greater than 1000 µM and the TGI [10] was greater than 1000 µM.
Work on `O=C(NCCCNc1cc(-c2cn(-c3ccccc3)nc2-c2cccc(O)c2)ccn1)c1ccccc1` yielded a GI50 [1] of 1.71 µM, a TGI [1] of 3.67 µM and a GI50 [2] of 5.29 µM. The TGI [2] was 96.5 µM, the GI50 [3] was 1.71 µM and the TGI [3] was 5.23 µM. It also gave a GI50 [4] of 2.25 µM, a TGI [4] of 6.36 µM and a GI50 [5] of 1.74 µM. For the same compound, the TGI [5] was 5.29 µM, the GI50 [6] was 2.34 µM and the TGI [6] was 5.4 µM. The GI50 [7] was 3.06 µM, the TGI [7] was 17.1 µM and the GI50 [8] was 1.49 µM. For the same compound, the TGI [8] was 3.12 µM, the GI50 [9] was 6 µM and the TGI [9] was greater than 100 µM. It also gave a GI50 [10] of 1.68 µM and a TGI [10] of 5.35 µM.
With `O=C1C=C(Br)C(=O)C12CCc1ccccc12` (stereo not given) the TGI [1] was 11.2 µM, the TGI [2] was 31.7 µM and the TGI [3] was 45 µM. It also gave a TGI [4] of 31.7 µM, a TGI [5] of 48.5 µM and a TGI [6] of 70.2 µM. For the same compound, the TGI [7] was 10.2 µM, the TGI [8] was 34.6 µM and the TGI [9] was 35 µM. For the same compound, the TGI [10] was 17.3 µM.
